The values that follow come from patent publication US20120121692A1, “COMPOUNDS AND COMPOSITIONS COMPRISING CDK INHIBITORS AND METHODS FOR TREATING CANCER” (SHANDONG UNIVERSITY, priority 2009, published 2012).

Like-named read-outs stand apart in the source and are kept apart here.

For series [1], the system named is HCT116 cells. Nature of the series: MTT cytotoxicity screening, human colon cancer cell line HCT116. The format is cell-based. Particulars: Homo sapiens. The source says:
Human colon cancer cell line HCT116 can be used for the preliminary cytotoxicity screening of the disclosed compounds as disclosed by Mosmann, T., “Rapid colorimetric assay for cellular growth and survival: application to proliferation and cytotoxicity assays.” J. Immunol. Methods, (1983) 65(1-2): p. 55-63 referred to herein further as the “MTT test” which is incorporated herein by reference in its entirety.
The disclosure of Mosmann recites the following. “MTT 93-(4,5-dimethylthirazol-2-yl)-2,5-diphenyl tetrazolium bromide; Sigman catalog no. M2128) was dissolved in PBS at 5 mg/ml and filtered to sterilize and remove a small amount of insoluble residue present in some batches of MTT. At the times indicated below, stock MTT solution (10 ml per 100 ml) was added to all wells of an assay, and plates were incubated at 37° C. for 4 h. Acid-siopropanol (100 ml of 0.04 N HCl in isopropanol) was added to all wells and mixed thoroughly to dissolve the dark blue crystals. After a few minutes at room temperature to ensure that all crystals were dissolved, the plates were read o a Dynatech MR580Microelisa reader, using a test wavelength of 570 nm, a reference wavelength of 630 nm, and a calibration setting of 1.99 (or 1.0 if the samples were strongly colored). Plates were normally read within 1 h of adding the isopropanol.
“Our final procedure was to add 0.01 ml MTT (5 mg/ml in phosphate-buffered saline) to 0.1 ml cells in growth medium. After 4 h at 37° C. for MTT cleavage, the formazan product was solublilized by the addition of 0.1 ml 0.04 N HCl in isopropanol. Optical density was measured on a Dynatech MR 580 plate reader, using a reference wavelength of 630 nm and a test wavelength of 570 nm.” 3-(4,5-Dimethylthiazol-2-yl)-2,5-diphenyltetrazolium bromide, a tetrazole, can pass through cellular membrane to enter into cells. This tetrazole may be reduced to the purple formazan in the mitochondria of living cells, which can diffuse out to form crystals. This crystal can be dissolved in the dimethyl sulfoxide to form a colored solution. The absorbance of this colored solution can be quantified by measuring at certain wavelength (490 nm) using a spectrophotometer. The quantity of the formazan crystal is proportional to the number of living cells.
As used herein, cells were cultured in McCoy's 5A medium supplemented with 10% heat-inactivated Fetal Bovine Serum (FBS) and 5% Penicillin/Streptomycin solution. McCoy's 5A, 1× (Iwakata & Grace modified) medium with L-Glutamine, DPBS, 1× w/o Ca and Mg, Penicillin/Streptomycin solution, Trypsin EDTA, 1× and PBS, 1× w/o Ca and Mg were purchased from Mediatech, Inc. (USA). FBS was purchased from Hyclone (USA).
The cytotoxicity of the compounds was estimated using the MTT assay. A 96-well plate was seeded with 100 μl medium containing HCT116 cells in suspension at a density of 2.5×10^4 cells/ml. After 24 hours of incubation, the cells were treated with the compounds, which were dissolved in DMSO (dimethyl sulfoxide) as stock solutions and diluted to final concentrations of 100 μM, 50 μM, 25 μM, 12.5 μM, 6.25 μM & 1 μM (for compounds tested in the micromolar concentrations) and 10 μM, 1 μM, 500 nM, 250 nM, 125 nM & 62.5 nM (for compounds tested in the nanomolar concentration range) using medium containing 0.1% DMSO. The final concentration of DMSO in the culture medium was maintained at 0.1%-0.001% (v/v). After 48 hrs incubation in the presence of test compounds, the spent medium was removed and the wells were washed twice with 100 μL of PBS solution. 100 μL of fresh medium and 10 μL of MTT (5 mg/ml in PBS) was added to the wells and incubated at 37° C. in dark for 4 hrs. The formazan product was dissolved by adding 100 μL of 100% DMSO after removing the medium from each well and was stabilized by adding 12.5 μL of Sorensen's glycine buffer to each well. […]

[2] abbreviates: HCT-116, 48 hrs incubation, absorbance 490 nm, primary screening, read-out: IC50.

For the compound `COc1ccc(/C=C/C(=O)c2c(OC)cc(OC)c(CN3CCCCC3)c2O)cc1` [Compound C2, (E)-1-(2-hydroxy-4,6-dimethoxy-3-(piperidin-1-ylmethyl)phenyl)-3-(4-methoxyphenyl)-2-propylene-1-one], the melting point (commonly the temperature of the solid-liquid transition) lay within 129 to 130 °C. For the same compound, the half-inhibitory concentration (IC50) (usually the concentration at which inhibition is half-maximal) in series [1] (setting [2]) was 5.46 µM.
Taken in the same sequence, the figures for `COc1cc(OC)c(C(=O)/C=C/c2cccc(Cl)c2)c(O)c1CN1CCCCC1` [Compound C4] were 134 to 135 °C and 3.87 µM.
For `COc1cc(OC)c(C(=O)/C=C/c2ccc(C)cc2)c(O)c1CN1CCOCC1` [Compound D1, (E)-1-(2-hydroxy-4,6-dimethoxy-3-(morpholin-4-ylmethyl)phenyl)-3-(4-methylphenyl)-2-propylene-1-one], in that order: 126 to 127 °C and 14.8 µM.
For `COc1ccc(/C=C/C(=O)c2c(OC)cc(OC)c(CN3CCOCC3)c2O)cc1` [Compound D2, (E)-1-(2-hydroxy-4,6-dimethoxy-3-(morpholin-4-ylmethyl)phenyl)-3-(4-methoxyphenyl)-2-propylene-1-one], in that order: 159 to 160 °C and 21.4 µM.
On to `COc1cc(OC)c(C(=O)/C=C/c2ccc(Cl)cc2)c(O)c1CN1CCOCC1` [Compound D3, (E)-3-(4-chlorophenyl)-1-(2-hydroxy-4,6-dimethoxy-3-(morpholin-4-ylmethyl)phenyl)-2-propylene-1-one], for which the melting point was in the range of 140 to 141 °C. Further, the IC50 in series [1] (setting [2]) was 6.97 µM.
`COc1cc(OC)c(C(=O)/C=C/c2ccc(Br)cc2)c(O)c1CN1CCOCC1` [Compound D4, (E)-3-(4-bromophenyl)-1-(2-hydroxy-4,6-dimethoxy-3-(morpholin-4-ylmethyl)phenyl)-2-propylene-1-one] returned a melting point of 144 to 145 °C. For the same compound, the IC50 in series [1] (setting [2]) amounted to 5.52 µM. For the same compound, the IC50 in series [1] (HCT-116, further evaluated after secondary screening (Table VIII), read-out: IC50 value) is ~3 µM.
`COc1cc(OC)c(C(=O)/C=C/c2cccc(Cl)c2)c(O)c1CN1CCOCC1` [Compound D5, (E)-3-(3-chlorophenyl)-1-(2-hydroxy-4,6-dimethoxy-3-(morpholinemethyl)phenyl)-2-propylene-1-one] showed a melting point of 135 to 136 °C. In addition, in series [1] (setting [2]), the IC50 was 2.8 µM.
In turn, `COc1cccc(/C=C/C(=O)c2c(OC)cc(OC)c(CN3CCOCC3)c2O)c1` [Compound D6, (E)-3-(3-methoxyphenyl)-1-(2-hydroxy-4,6-dimethoxy-3-(morpholinemethyl)-phenyl)-2-propylene-1-one] came in with a melting point of 169 to 170 °C. Further, the 50% inhibitory concentration (IC50) in series [1] (setting [2]) was found to be 2.17 µM.
`COc1cc(OC)c(C2=CCN(C)CC2)c(O)c1C(=O)/C=C/c1ccco1` [Compound E1, (E)-3-(furan-2-yl)-1-(2-hydroxy-4,6-dimethoxy-3-(1-methyl-1,2,3,6-tetrahydro-pyridine-4-yl)phenyl)-2-propylene-1-one]: the melting point fell in the range of 145 to 146 °C. Further, in series [1] (setting [2]), the IC50 amounted to 10.2 µM.
As to `COc1cc(OC)c(C2=CCNCC2)c(O)c1C(=O)/C=C/c1ccco1` [Compound E2, (E)-3-(furan-2-yl)-1-(2-hydroxy-4,6-dimethoxy-3-(1,2,3,6-tetrahydropyridin-4-yl)phenyl)-2-propylene-1-one], the melting point was 119 to 120 °C. In addition, the IC50 in series [1] (setting [2]) was 11.1 µM.
The compound `COc1cc(OC)c(C(=O)/C=C/c2ccco2)c(O)c1CN1CCCCC1` [Compound E31, (E)-3-(furan-2-yl)-1-(2-hydroxy-4,6-dimethoxy-3-(piperidine-1-ylmethyl)phenyl)-2-propylene-1-one] gave a melting point of 95 to 96 °C. In series [1] (setting [2]), the IC50 stood at 8.52 µM.
For `COc1cc(OC)c(C(=O)/C=C/c2ccco2)c(O)c1CN1CCOCC1` [Compound E32, (E)-3-(furan-2-yl)-1-(2-hydroxy-4,6-dimethoxy-3-(morpholin-4-ylmethyl)phenyl)-2-propylene-1-one], in that order: 147 to 148 °C and 45.7 µM.
